# Measured values: PubChem BioAssay (NCI)
#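 Protocol summary: plate cells (96-well), add compound at 5 concentrations, incubate 48 h, interpolate endpoints linearly. GI50 is the concentration that inhibits growth by half. TGI: concentration producing complete growth inhibition.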
# What was measured:
# Assay in all cases: NCI tumour cell line growth inhibition, 48 h
# [1] = tested on: UACC-62 melanoma
# [2] = tested on: SF-268 CNS
# [3] = tested on: OVCAR-4 ovarian
# [4] = tested on: HS 578T breast
# [5] = tested on: IGROV1 ovarian
# [6] = tested on: OVCAR-8 ovarian
# [7] = tested on: MOLT-4 leukemia
# [8] = tested on: SF-539 CNS
# [9] = tested on: HOP-62 NSCLC
# [10] = tested on: M14 melanoma
# [11] = tested on: HOP-92 NSCLC
# [12] = tested on: HL-60(TB) leukemia
# [13] = tested on: NCI/ADR-RES ovarian
# [14] = tested on: DU-145 prostate
# [15] = tested on: LOX IMVI melanoma
# [16] = tested on: NCI-H460 lung
# [17] = tested on: SK-OV-3 ovarian
# [18] = tested on: HCT-116 colon
# [19] = tested on: HCT-15 colon
# [20] = tested on: CAKI-1 renal
# [21] = tested on: UACC-257 melanoma
# [22] = tested on: U251 CNS
# [23] = tested on: SF-295 CNS
# [24] = tested on: COLO 205 colon
# [25] = tested on: SK-MEL-5 melanoma
# [26] = tested on: SNB-19 CNS
# [27] = tested on: K-562 leukemia
# [28] = tested on: EKVX NSCLC
# [29] = tested on: NCI-H226 lung
# [30] = tested on: SW-620 colon
# [31] = tested on: A498 renal
# [32] = tested on: RPMI-8226 leukemia
# [33] = tested on: MCF7 breast
# [34] = tested on: A549 NSCLC
# [35] = tested on: OVCAR-3 ovarian
# [36] = tested on: RXF 393 renal
# [37] = tested on: MDA-MB-231 breast
# [38] = tested on: OVCAR-5 ovarian
# [39] = tested on: MALME-3M melanoma
# [40] = tested on: UO-31 renal
# [41] = tested on: SR leukemia
# [42] = tested on: KM12 colon
# [43] = tested on: MDA-MB-435
# [44] = tested on: ACHN renal
# [45] = tested on: NCI-H23 lung
# [46] = tested on: CCRF-CEM leukemia
# [47] = tested on: SK-MEL-28 melanoma
# [48] = tested on: BT-549 breast
# [49] = tested on: HCC-2998 colon
# [50] = tested on: SN12C renal
# [51] = tested on: 786-0 renal
# [52] = tested on: SK-MEL-2 melanoma
# [53] = tested on: TK-10 renal
# [54] = tested on: PC-3 prostate
# [55] = tested on: SNB-75 CNS
# [56] = tested on: NCI-H522 lung
# [57] = tested on: T-47D breast
# [58] = tested on: HT29 colon
smiles,measurement,setting,value
COc1ccc([C@H]2c3cc(OC)c(OC)cc3C=C(C=O)C2CO)cc1OC (some centres not stated),GI50,[1],4320 nM
same,TGI,[1],> 100000 nM
same,GI50,[2],4740 nM
same,TGI,[2],> 100000 nM
same,GI50,[3],7940 nM
same,TGI,[3],> 100000 nM
same,GI50,[4],2720 nM
same,TGI,[4],17300 nM
same,GI50,[5],2080 nM
same,TGI,[5],8890 nM
same,GI50,[6],6900 nM
same,TGI,[6],> 100000 nM
same,GI50,[7],> 100000 nM
same,TGI,[7],> 100000 nM
same,GI50,[8],3330 nM
same,TGI,[8],> 100000 nM
same,GI50,[9],4790 nM
same,TGI,[9],> 100000 nM
same,GI50,[10],4410 nM
same,TGI,[10],> 100000 nM
same,GI50,[11],> 100000 nM
same,TGI,[11],> 100000 nM
same,GI50,[12],3650 nM
same,TGI,[12],> 100000 nM
same,GI50,[13],23100 nM
same,TGI,[13],> 100000 nM
same,GI50,[14],3510 nM
same,TGI,[14],21800 nM
same,GI50,[15],7440 nM
same,TGI,[15],> 100000 nM
same,GI50,[16],3510 nM
same,TGI,[16],> 100000 nM
same,GI50,[17],4230 nM
same,TGI,[17],> 100000 nM
same,GI50,[18],5320 nM
same,TGI,[18],> 100000 nM
same,GI50,[19],5030 nM
same,TGI,[19],> 100000 nM
same,GI50,[20],3020 nM
same,TGI,[20],> 100000 nM
same,GI50,[21],> 100000 nM
same,TGI,[21],> 100000 nM
same,GI50,[22],4420 nM
same,TGI,[22],> 100000 nM
same,GI50,[23],1790 nM
same,TGI,[23],5850 nM
same,GI50,[24],3910 nM
same,TGI,[24],17900 nM
same,GI50,[25],3510 nM
same,TGI,[25],> 100000 nM
same,GI50,[26],8560 nM
same,TGI,[26],> 100000 nM
same,GI50,[27],6030 nM
same,TGI,[27],> 100000 nM
same,GI50,[28],5290 nM
same,TGI,[28],> 100000 nM
same,GI50,[29],> 100000 nM
same,TGI,[29],> 100000 nM
same,GI50,[30],3490 nM
same,TGI,[30],> 100000 nM
same,GI50,[31],19000 nM
same,TGI,[31],> 100000 nM
same,GI50,[32],9220 nM
same,TGI,[32],> 100000 nM
same,GI50,[33],3730 nM
same,TGI,[33],> 100000 nM
same,GI50,[34],52500 nM
same,TGI,[34],> 100000 nM
same,GI50,[35],2090 nM
same,TGI,[35],4870 nM
same,GI50,[36],3270 nM
same,TGI,[36],> 100000 nM
same,GI50,[37],6740 nM
same,TGI,[37],> 100000 nM
same,GI50,[38],43000 nM
same,TGI,[38],> 100000 nM
same,GI50,[39],1840 nM
same,TGI,[39],7430 nM
same,GI50,[40],3600 nM
same,TGI,[40],> 100000 nM
same,GI50,[41],4950 nM
same,TGI,[41],> 100000 nM
same,GI50,[42],2900 nM
same,TGI,[42],43600 nM
same,GI50,[43],914 nM
same,TGI,[43],2810 nM
same,GI50,[44],7530 nM
same,TGI,[44],> 100000 nM
same,GI50,[45],7150 nM
same,TGI,[45],> 100000 nM
same,GI50,[46],19000 nM
same,TGI,[46],> 100000 nM
same,GI50,[47],6620 nM
same,TGI,[47],> 100000 nM
same,GI50,[48],> 100000 nM
same,TGI,[48],> 100000 nM
same,GI50,[49],12100 nM
same,TGI,[49],76300 nM
same,GI50,[50],5700 nM
same,TGI,[50],> 100000 nM
same,GI50,[51],7150 nM
same,TGI,[51],> 100000 nM
CC(=O)O[C@@H]1C=CC(=O)C2(CC(=O)O[C@@H]2/C=C(\C)CCC=C(C)C)C1 (some centres not stated),GI50,[1],1120 nM
same,TGI,[1],2360 nM
same,GI50,[2],1050 nM
same,TGI,[2],2310 nM
same,GI50,[4],2540 nM
same,TGI,[4],> 23400 nM
same,GI50,[5],965 nM
same,TGI,[5],2470 nM
same,GI50,[6],350 nM
same,TGI,[6],1810 nM
same,GI50,[7],126 nM
same,TGI,[7],1030 nM
same,GI50,[8],591 nM
same,TGI,[8],1440 nM
same,GI50,[9],1360 nM
same,TGI,[9],3400 nM
same,GI50,[11],1590 nM
same,TGI,[11],3940 nM
same,GI50,[12],184 nM
same,TGI,[12],557 nM
same,GI50,[13],223 nM
same,TGI,[13],827 nM
same,GI50,[14],633 nM
same,TGI,[14],2380 nM
same,GI50,[52],1510 nM
same,TGI,[52],4430 nM
same,GI50,[15],229 nM
same,TGI,[15],743 nM
same,GI50,[16],378 nM
same,TGI,[16],2200 nM
same,GI50,[53],1670 nM
same,TGI,[53],3710 nM
same,GI50,[17],2000 nM
same,TGI,[17],4490 nM
same,GI50,[18],399 nM
same,TGI,[18],1710 nM
same,GI50,[19],285 nM
same,TGI,[19],1280 nM
same,GI50,[54],383 nM
same,TGI,[54],1190 nM
same,GI50,[20],744 nM
same,TGI,[20],2300 nM
same,GI50,[21],1030 nM
same,TGI,[21],2600 nM
same,GI50,[22],820 nM
same,TGI,[22],2070 nM
same,GI50,[23],1750 nM
same,TGI,[23],4070 nM
same,GI50,[24],2240 nM
same,TGI,[24],10300 nM
same,GI50,[55],1330 nM
same,TGI,[55],2830 nM
same,GI50,[25],1310 nM
same,TGI,[25],3100 nM
same,GI50,[26],1600 nM
same,TGI,[26],3580 nM
same,GI50,[27],449 nM
same,GI50,[28],3280 nM
same,TGI,[28],7870 nM
same,GI50,[29],623 nM
same,TGI,[29],4770 nM
same,GI50,[30],436 nM
same,GI50,[31],1730 nM
same,TGI,[31],3810 nM
same,GI50,[33],77.2 nM
same,TGI,[33],599 nM
same,GI50,[34],2040 nM
same,TGI,[34],4910 nM
same,GI50,[35],435 nM
same,TGI,[35],1600 nM
same,GI50,[36],185 nM
same,TGI,[36],962 nM
same,GI50,[56],988 nM
same,GI50,[37],405 nM
same,TGI,[37],1330 nM
same,GI50,[38],267 nM
same,TGI,[38],1080 nM
same,GI50,[40],1580 nM
same,TGI,[40],3590 nM
same,GI50,[41],33.9 nM
same,TGI,[41],31600 nM
same,GI50,[57],389 nM
same,TGI,[57],873 nM
same,GI50,[42],1300 nM
same,TGI,[42],4160 nM
same,GI50,[43],369 nM
same,TGI,[43],1600 nM
same,GI50,[44],1160 nM
same,TGI,[44],2430 nM
same,GI50,[45],365 nM
same,TGI,[45],1330 nM
same,GI50,[46],163 nM
same,TGI,[46],543 nM
same,GI50,[58],529 nM
same,TGI,[58],73900 nM
same,GI50,[47],2150 nM
same,TGI,[47],7790 nM
same,GI50,[48],1150 nM
same,TGI,[48],3540 nM
same,GI50,[49],601 nM
same,TGI,[49],1990 nM
same,GI50,[50],997 nM
same,TGI,[50],2270 nM
same,GI50,[51],931 nM
same,TGI,[51],2260 nM
